Where a name gives a salt, the structure may show the parent alone. Read-outs that look alike come from different tables or passages of the source. Marks after values point to notes of the source that are not given here.
How the values were obtained:
[1] = Acute oral toxicity in rats; conditions: rat, in vivo
[2] = Acute oral toxicity in mice; conditions: mouse, in vivo
[3] = Blood, urine and tissue concentrations in mice after oral administration (microbiological assay with Bacillus pumilus); assay type: in vivo; conditions: 2mg/mouse P.O.; for Urine Direct (percentage in brackets): appears to be direct urine concentration as percent of that after Glusalase; for concentration at 1 h / concentration at 2 h / concentration at 4 h: po; for concentration at 1 h: 1 hour after dosing, read-out: Conc. in blood at 1HR; for concentration at 2 h: 2 hours after dosing, read-out: Conc. in blood at 2HR
Description: Also shown in Table 1 is the concentration of each of the compounds in the blood urine and tissues of mice after oral administration. These concent rations were determined as described hereafter. The compounds, suspended in 0.1% methylcellulose, were administered by stomach tube to groups of 3 mice, the dose was 2.0mg per 20g mouse and blood was collected from the orbital sinus at 1, 2 and 4 hours after the dosing. Urine was collected directly from each animal at the 4th hour, after which the animals were killed. Liver, lung, brain and muscle was taken from each animal and homogenised in an equal volume (w/v) of water in a Polytron Homogenizer. The suspensions were taken to be 1:2 extracts of the tissues.
The concentrations of the drugs were determined microbiologically, using Bacillus pumilus, those in the urine determined both before and after 18 hours incubation with Glusalase (gluecuronidase and sulfatase).

[4] = tested on: Neisseria gonorrhoeae; experiment: Antigonococcal activity, MIC by agar dilution, relative to trimethoprim; assay type: cell-based; conditions: expressed as activity versus TMP activity, 17 strains; for Antigonococcal Activity v.N.gonorrhaeae W.S.T.A. / Antigonococcal Activity v.N.gonorrhaeae W.S.T.A. (Repeat Examination): Wellcotest Sensitivity Test Agar; for Antigonococcal Activity v.N.gonorrhaeae W.S.T.A.: Screening Examination, 24 hours incubation; for Antigonococcal Activity v.N.gonorrhaeae W.S.T.A. (Repeat Examination): standardised inocula, 48 hours incubation; for Antigonococcal Activity v.N.gonorrhaeae G.C.A.: Difco G.C. Agar
Description: (§1) The antigonococcal activity of 2,4-diamino-(3,5-diethyl-4-hydroxybenzyl)pyrimidine (compound 1), 2,4-diamino-(4-hydroxy-3,5-di-n-propylbenzyl)pyrimidine (compound 2), 2,4-diamino-(3-ethyl-4-hydroxy-5-n-propylbenzyl)pyrimidine (compound 3),24-diamino-(4-hydroxy-3,5-di-i-propylbenzyl)pyrimidine (compound 4) and 2,4-·diamino-·(3,5-di--t-butyl-4-hydroxybenzyl) pyrimidine (compound 5) and the antimeningococcal activity of compounds 2,3 and 4 were determined […] by the following methods. The activities were measured against 17 strains of Neisseria gonorrhoeae and 5 strains of Neisseria meningitidis in Wellcotest Sensitivity Test Agar supplemented with 5$ heated horse blood and 5% unheated lysed horse blood, In practice, 5% blood was added to 500ml quantities of the medium at 56°C and, after being placed in a 80°C water bath for 15 minutes and then cooled to 56°C, the lysed blood and the test compounds were added. The medium was then immediately poured into plates. The test compounds were dissolved as the isothionates.
(§2) In the Screening Examination, which consisted of 6 separate tests, the minimum inhibitory concentrations (MIC's) were determined in one-third interval dilutions and then reexamined in one-half interval dilution.
(§3) The inoculum in the Screening Examination was from an 18-hour Mueller-Hinton heated-blood broth culture, and applied with a lmm loop which was streaked along lcm.. Because the amount of growth produced by the strains varied, the inocula was not constant in these tests, in the Repeat Examination, the inocula were standardised to give "just confluent'' growth. The MIC's were read as that concentration which produced 90% or more inhibition of growth as compared macroscopically with that of the control growth. The incubation period for the Screening Examination was 24 hours and for the Repeat Examination 48 hours.
(§4) As standards, Escherichia coli (CN 314 ) and trimethoprim (TMP) were included in each test.
(§5) Using the above method the activities of compound 5 was measured against the same 17 strains of Neisseria gonorrhoeae and 5 strains of Neisseria meningitidis in Difco G.C. Agar.

[5] = tested on: Escherichia coli (CN 314 ); experiment: Activity against standard organism E. coli, MIC by agar dilution, relative to trimethoprim; assay type: cell-based; conditions: expressed as activity versus TMP activity
Description: The medium was then immediately poured into plates. The test compounds were dissolved as the isothionates. […] Because the amount of growth produced by the strains varied, the inocula was not constant in these tests, in the Repeat Examination, the inocula were standardised to give "just confluent'' growth. The MIC's were read as that concentration which produced 90% or more inhibition of growth as compared macroscopically with that of the control growth. The incubation period for the Screening Examination was 24 hours and for the Repeat Examination 48 hours. As standards, Escherichia coli (CN 314 ) and trimethoprim (TMP) were included in each test.

[6] = tested on: Neisseria meningitidis; experiment: Antimeningococcal activity, MIC by agar dilution, relative to trimethoprim; assay type: cell-based; conditions: expressed as activity versus TMP activity; 5 strains
Description: as §1, §2, §3, §4, §5

[7] = blood, 4 hours after dosing, read-out: Conc. in blood at 4HR
[8] = brain, 4 hours, tissue homogenate, read-out: Concentration at 4HRS in: Brain
[9] = liver, 4 hours, tissue homogenate, read-out: Concentration at 4HRS in: Liver
[10] = lung, 4 hours, tissue homogenate, read-out: Concentration at 4HRS in: Lung
[11] = muscle, 4 hours, tissue homogenate, read-out: Concentration at 4HRS in: Muscle
[12] = 4 hours, urine after 18 hours incubation with Glusalase (glucuronidase and sulfatase), read-out: Concentration at 4HRS in: Urine After glacolase
[13] = 4 hours, urine before incubation with Glusalase, read-out: Concentration at 4HRS in: Urine Direct

SMILES | LD50 [1] [mg/kg] | LD50 ([2]; female mice, read-out: LD50 (mice) female) [mg/kg] | LD50 ([2]; male mice, read-out: LD50 (mice) male) [mg/kg] | Urine Direct (percentage in brackets) ([3]; 4 hours) [%] | concentration at 1 h ([3]; blood) [µg/mL] | concentration at 2 h ([3]; blood) [µg/mL] | concentration at 4 h [3, 7] [µg/mL] | concentration at 4 h [3, 8] [µg/mL] | concentration at 4 h [3, 9] [µg/mL] | concentration at 4 h [3, 10] [µg/mL] | concentration at 4 h [3, 11] [µg/mL] | concentration at 4 h [3, 12] [µg/mL] | concentration at 4 h [3, 13] [µg/mL] | Antigonococcal Activity v.N.gonorrhaeae W.S.T.A. [4] | Antigonococcal Activity v.E.coli (CN314) [5] | Antigonococcal Activity v.N.meningitidis [6] | Antigonococcal Activity v.N.gonorrhaeae W.S.T.A. (Repeat Examination) [4] | Antigonococcal Activity v.N.gonorrhaeae G.C.A. [4]
CC(C)c1cc(Cc2cnc(N)nc2N)cc(C(C)C)c1O [2,4-diamino-5-(3,5-diisopropyl-4-hvdroxyberzyl) pyrimidine lactate salt] | > 100 | 2890 | 2830 |  |  |  |  |  |  |  |  |  |  |  |  |  |  | 
CCc1cc(Cc2cnc(N)nc2N)cc(CC)c1O [COMPOUND 1, 2,4-diamino-(3,5-diethyl-4-hydroxybenzyl)pyrimidine] |  |  |  | 7 | 1.11 | 0.41 | 0.4 | 0.34 | 1.94 | 1.75 | < 0.03 | 790 | 56 | 7 |  |  |  | 
CCCc1cc(Cc2cnc(N)nc2N)cc(CCC)c1O [COMPOUND 2, 2,4-diamino-(4-hydroxy-3,5-di-n-propylbenzyl)pyrimidine] |  |  |  | 2.5 | 1.36 | 0.5 | 0.44 | 0.5 | 3.75 | 1.8 | < 0.03 | 650 | 16 | 21 | 0.03 | 11 | 17^** | 
CCCc1cc(Cc2cnc(N)nc2N)cc(CC)c1O [COMPOUND 3, 2,4-diamino-(3-ethyl-4-hydroxy-5-n-propylbenzyl)pyrimidine] |  |  |  | 2.2 | 0.88 | 0.9 | 0.8 | 0.44 | 5 | 3.6 | 0.21 | 1800 | 39 | 21 | >0.1 | 7 | 18^** | 
CC(C)c1cc(Cc2cnc(N)nc2N)cc(C(C)C)c1O [COMPOUND 4, 24-diamino-(4-hydroxy-3,5-di-i-propylbenzyl)pyrimidine] |  |  |  | 50 | 1.38 | 1.08 | 0.65 | 0.46 | 8.3 | 2.6 | < 0.03 | 190 | 95 | 18 | 0.03 | 7 | 17^** | 13
CC(C)(C)c1cc(Cc2cnc(N)nc2N)cc(C(C)(C)C)c1O [COMPOUND 5, 2,4-·diamino-·(3,5-di--t-butyl-4-hydroxybenzyl) pyrimidine] |  |  |  | 42 | 4.25 | 4 | 3 | 4.4 | 6 | 11.2 | < 0.26 | 240 | 100 |  |  |  |  | 7
COc1cc(Cc2cnc(N)nc2N)cc(OC)c1OC [TMP, 2,4-diamino-5-(3,4,5-trimethoxybenzyl)pyrimidine, reference compound] |  |  |  | 50 | 2.15 | 0.28 | < 0.02 | < 0.04 | 1.08 |  | < 0.04 | 400 | 200 | 1 | 1 | 1 | 1 | 1
